Results reported in patent US11135223B2, “Compositions and methods for inhibiting Dkk-1” (YALE UNIVERSITY, priority 2016, dated 2021).

Test system: L. major
Experiment: Leishmania (L.) major infection model
Type: in vivo, BALB/c mice
Procedure: FIG. 4, comprising FIG. 4A through FIG. 4H, depicts results of experiments showing functional inhibition of Dkk-1 protects the host from chronic inflammation caused by L. major. FIG. 4A depicts a schematic diagram for Dkk-1 inhibitor treatment (10 μg/kg/time) in six-week-old female BALB/c mice. FIG. 4B depicts analysis of parasite burden in the infected foot from each mouse at day 42. FIG. 4C depicts the lesion size in the infected foot from each mouse at day 42. FIG. 4D depicts the cell count of macrophages in the infected hindfoot of mice two weeks after vehicle (n=5) or Dkk-1 inhibitor treatment (n=5) counted by flow cytometry and compared with infected (untreated) and uninfected BALB/c mice (n=3). FIG. 4E depicts results of draining lymph node cells from each mouse (n=5/group) that were stimulated with sLMAG (soluble leishmania antigen) 2 weeks after infection. FIG. 4F depicts results of draining lymph node cells from each mouse (n=5/group) were stimulated with sLMAG 6 weeks after infection. FIG. 4G depicts the CD4 cell percentage in draining lymph nodes from each group was determined by flow cytometry. FIG. 4H depicts CD4 T cell numbers in draining lymph nodes from each group was determined by flow cytometry. A representative of two independent experiments is shown. Student's t-test and one-way-ANOVA analysis with Dunnet's post-hoc test were performed. **, p<0.005, *, p<0.05.
FIG. 17, comprising FIG. 17A and FIG. 17B, depicts results of experiments showing a Dkk-1 monoclonal antibody treatment protects BALB/c mice from chronic inflammation caused by L. major. FIG. 17A depicts the number lymph node cells were in L. major infected BALB/c mice injected with a Dkk-1 monoclonal antibody or isotype control antibody. BALB/c mice were infected with L. major (2 million parasites/animal) on day 0. Dkk-1 mAb or isotype control antibody (100 μg/injection) was injected intraperitoneally into six-week-old female BALB/c mice on day −1, +1, +3, +5, +7, +9, +11, +14 (n=6). On day 14, mice were sacrificed, and their drained lymph node cells were counted. Student's t-test was performed. *,p<0.05. FIG. 17B depicts the lesion size in BALB/c mice injected with a Dkk-1 monoclonal antibody or isotype control antibody. Six-week-old female BALB/c mice were infected with L.major, and DKK-1 mAb was treated intraperitoneally on day −1, +1, +3, +5, +7, +9, +11, +14, +21 and +28. Lesion size for each mouse was measured on day 12, 22, and 32. Student's t-test was performed. *, p<0.05.
L. major WR309 strain (MHOM/IL/79/LRC-L251) was originally isolated from a human case of cutaneous leishmaniasis in Israel and has been maintained through culture and frequent passages in mice to maintain virulence. BALB/c mice were infected with 2×10^6 late stationary promastigotes isolated from a Percoll gradient. For monitoring 2 week and 6 week experiments, Dkk-1 inhibitor (10 mg/kg) or vehicle (50 μl DMSO) was injected on day −1, +1, +3, +5, +7, +9, +11 and weekly afterwards till harvest. Draining lymph nodes, nondraining lymph nodes, and plasma were collected. For ex vivo analysis, soluble Leishmania major antigen (sLMAg) was employed. Single cell suspension of draining and non-draining lymph node cells was incubated with sLMAg (equivalent to 5×10^6 organisms/ml final) for 96 hr. Supernatants were harvested and analyzed by ELISA assays. For depleting platelets, 80 μg of anti-CD42 mAb (Emfret Analytical) was injected intravenously in 100 μl PBS. Equal amounts of isotype-matched control Ab (eBioscience) was used for control group animals. Tissues from mice were harvested on day 3 post-infection for analysis.
To determine the ability of an anti-Dkk-1 monoclonal antibody (Dkk-1 mAb) to protect BALB/c mice against chronic inflammation caused by L. major, 6-week old BALB/c mice were infected with L.major (2 million parasites/animal) on day 0. A Dkk-1 mAb or isotype control antibody (100 μg/injection) was injected intraperitoneally on day −1, +1, +3, +5, +7, +9, +11, +14 (n=6). […]

[1] = BALB/c mice, infected foot, 42 days post-infection
[2] = days 14 and 42 post-infection, ex vivo stimulation of draining lymph node cells with sLMAG

## NCC1CCN(c2nccc(-c3ccc4ccccc4c3)n2)CC1 [WAY-262611, (1-(4-(naphthalen-2-yl)pyrimidin-2-yl)piperidin-4-yl)methanamine]
BALB/c mice, 10 mg/kg intraperitoneally, 42 days post-infection
  reduction of parasite survival: 11.5 fold
[1]
  lesion size: greatly reduced
  parasite burden: greatly reduced
FIG. 4G
  percentage of CD4 T cells in draining lymph nodes (dLN): did not reduce
FIG. 4H
  number of CD4 T cells in the dLN: reduced
[2]
  IL-4 production: notably reduced
  IL-10 production: notably reduced
Infected hindfoot, 14 days after infection
  Macrophage accumulation following parasite infection: diminished
